pIC50: −log10 of the molar value. Read-outs that look alike come from different tables or passages of the source.
Assays:
Rho-A = Rho-A (Homo sapiens, UniProt P61586); experiment: Ras GTP binding domain inhibition assay (labeled-GTP competition, cell-free); parameters: made in house
How it was run: (§1)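 Immobilized His-tagged protein (Ni plate, 10-30 μg/mL, overnight 4° C); compound 20 μM or dilution series, 1% DMSO, 3 h RT, ±Sos 556-1049 last hour; Cy3/Cy5-GTP 100 nM, 45 min RT; 3× wash; bound fluorescence read.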

Rac-1 = Rac-1 (Homo sapiens, UniProt P63000); experiment: as above; parameters: made in house
How it was run: as §1

KRas wild type = KRas wild type (Homo sapiens, UniProt P01116); experiment: as above; parameters: made in house
How it was run: as §1

[1] = system: ERK1/2 phosphorylation in Panc-1 cells; experiment: Western ERK1/2 cell-based phosphorylation assay; parameters: species or system human; conditions: at 10 μM, values in brackets < > are activation %, not inhibition
How it was run: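 Panc-1 cells starved overnight in 0.5% FBS, then exposed 6 h at 37 °C to compound at 10 μM final (0.3% DMSO) or serial dilutions for IC50. Stimulation with 1.5 ng/ml EGF for 15 min; phospho-ERK1/2 (Thr202/Tyr204) read by western blot on equal protein loads.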

KRas G12D mutant = target: T1, KRas G12D mutant (Homo sapiens, UniProt P01116, G12D); experiment: Ras GTP binding domain inhibition assay (labeled-GTP competition, cell-free)
T1 construct: made in house
How it was run: as §1

KRas Q61H mutant = target: T2, KRas Q61H mutant (Homo sapiens, UniProt P01116, Q61H); experiment: as above
T2 construct: made in house
How it was run: as §1

KRas G12C mutant = target: T3, KRas G12C mutant (Homo sapiens, UniProt P01116, G12C); experiment: as above
T3 construct: made in house
How it was run: as §1

[2] = with SOS, read-out: Rho-A + SOS: % inh.
[3] = without SOS, read-out: Rho-A: % inh.
[4] = with SOS, read-out: Rac-1 + SOS: % inh.
[5] = without SOS, read-out: Rac-1: % inh.
[6] = with SOS, read-out: KRas wild type + SOS: % inh.
[7] = without SOS, read-out: KRas wild type: % inh.
[8] = with SOS, read-out: KRas G12D mutant + SOS: % inh.
[9] = without SOS, read-out: KRas G12D mutant: % inh.
[10] = with SOS, read-out: KRas Q61H mutant + SOS: % inh.
[11] = without SOS, read-out: KRas Q61H mutant: % inh.
[12] = with SOS, read-out: KRas G12C mutant + SOS: % inh.
[13] = without SOS, read-out: KRas G12C mutant: % inh.

Row | SMILES | inhibition at 20 µM (Rho-A; [2]) [%] | inhibition at 20 µM (Rho-A; [3]) [%] | inhibition at 20 µM (Rac-1; [4]) [%] | inhibition at 20 µM (Rac-1; [5]) [%] | inhibition at 20 µM (KRas wild type; [6]) [%] | inhibition at 20 µM (KRas wild type; [7]) [%] | % inh of ERK1/2 phosphorylation in PANC-1 [1] | inhibition at 20 µM (KRas G12D mutant; [8]) [%] | inhibition at 20 µM (KRas G12D mutant; [9]) [%] | inhibition at 20 µM (KRas Q61H mutant; [10]) [%] | inhibition at 20 µM (KRas Q61H mutant; [11]) [%] | pIC50 (KRas Q61H mutant; with SOS) | inhibition at 20 µM (KRas G12C mutant; [12]) [%] | inhibition at 20 µM (KRas G12C mutant; [13]) [%]
1 | CO[C@H]1CC[C@@H](Nc2nc(-c3nccn3C)nc3sc(-c4cn(C)cn4)c(-c4ccccc4)c23)C1 (racemic) [Example 3, Rac-N-((1R,3S)-3-methoxycyclopentyl)-2-(1-methyl-1H-imidazol-2-yl)-6-(1-methyl-1H-imidazol-4-yl)-5-phenylthieno[2,3-d]pyrimidin-4-amine] | 76 to 100 | 51 to 75 | 76 to 100 | 76 to 100 | 76 to 100 | 51 to 75 | A (1-25% inhibition) | 76 to 100 | 76 to 100 | 76 to 100 | 76 to 100 | 5.00 to 5.30 | 76 to 100 | 76 to 100
2 | COc1ccn2c(-c3nc(O)c4scc(-c5ccccn5)c4n3)ncc2c1 [Compound 85, 2-(7-Methoxyimidazo[1,5-a]pyridin-3-yl)-7-(pyridin-2-yl)thieno[3,2-d]pyrimidin-4-ol] | – | 51 to 75 | – | 51 to 75 | 1 to 25 | 51 to 75 | 0 (0% inhibition) | 26 to 50 | 51 to 75 | 26 to 50 | 51 to 75 | – | 1 to 25 | 26 to 50
3 | COc1ccc2cnc(-c3nc(O)c4scc(-c5ccccn5)c4n3)n2c1 [Compound 86, 2-(6-Methoxyimidazo[1,5-a]pyridin-3-yl)-7-(pyridin-2-yl)thieno[3,2-d]pyrimidin-4-ol] | – | 51 to 75 | – | 51 to 75 | 26 to 50 | 51 to 75 | 0 (0% inhibition) | 51 to 75 | 51 to 75 | 51 to 75 | 26 to 50 | – | 26 to 50 | 26 to 50
4 | COCCn1c(-c2nc(O)c3scc(-c4ccccn4)c3n2)nc2ccccc21 [Compound 87, 2-(1-(2-Methoxyethyl)-1H-benzo[d]imidazol-2-yl)-7-(pyridin-2-yl)thieno[3,2-d]pyrimidin-4-ol] | – | 51 to 75 | – | 51 to 75 | 1 to 25 | 26 to 50 | A (1-25% inhibition) | 26 to 50 | 51 to 75 | 26 to 50 | 1 to 25 | – | 1 to 25 | 1 to 25
5 | Oc1nc(-c2ccncn2)nc2c(-c3ccccn3)csc12 [Compound 88, 7-(Pyridin-2-yl)-2-(pyrimidin-4-yl)thieno[3,2-d]pyrimidin-4-ol] | – | 51 to 75 | – | 51 to 75 | 1 to 25 | 26 to 50 | <B> | 26 to 50 | 51 to 75 | 26 to 50 | 26 to 50 | – | 26 to 50 | 1 to 25
6 | Oc1nc(-c2cccnc2)nc2c(-c3ccccn3)csc12 [Compound 89, 7-(Pyridin-2-yl)-2-(pyridin-3-yl)thieno[3,2-d]pyrimidin-4-ol] | – | 1 to 25 | – | 0 | 0 | 0 | A (1-25% inhibition) | 0 | 0 | 1 to 25 | 1 to 25 | – | 0 | 0
7 | Cn1ccc(-c2nc(O)c3scc(-c4ccccn4)c3n2)n1 [Compound 90, 2-(1-Methyl-1H-pyrazol-3-yl)-7-(pyridin-2-yl)thieno[3,2-d]pyrimidin-4-ol] | – | 51 to 75 | – | 26 to 50 | 0 | 0 | 0 (0% inhibition) | 1 to 25 | 26 to 50 | 26 to 50 | 1 to 25 | – | 1 to 25 | 1 to 25
8 | Cn1nccc1-c1nc(O)c2scc(-c3ccccn3)c2n1 [Compound 91, 2-(1-Methyl-1H-pyrazol-5-yl)-7-(pyridin-2-yl)thieno[3,2-d]pyrimidin-4-ol] | – | 0 | – | 0 | 0 | 0 | 0 (0% inhibition) | 1 to 25 | 1 to 25 | 26 to 50 | 1 to 25 | – | 1 to 25 | 0
9 | Cc1cnc(-c2nc(O)c3scc(-c4ccccn4)c3n2)s1 [Compound 92, 2-(5-Methylthiazol-2-yl)-7-(pyridin-2-yl)thieno[3,2-d]pyrimidin-4-ol] | – | 76 to 100 | – | 76 to 100 | 51 to 75 | 51 to 75 | 0 (0% inhibition) | 51 to 75 | 76 to 100 | 51 to 75 | 76 to 100 | – | 51 to 75 | 51 to 75
10 | COCCn1ccnc1-c1nc(O)c2scc(-c3ccncc3)c2n1 [Compound 94, 2-(1-(2-Methoxyethyl)-1H-imidazol-2-yl)-7-(pyridin-4-yl)thieno[3,2-d]pyrimidin-4-ol] | – | 76 to 100 | – | 76 to 100 | 51 to 75 | 51 to 75 | 0 (0% inhibition) | 76 to 100 | 76 to 100 | 51 to 75 | 51 to 75 | – | 51 to 75 | 51 to 75
11 | COc1nc(-c2nccn2C)nc2c(-c3ncccc3F)csc12 [Compound 95, 7-(3-Fluoropyridin-2-yl)-4-methoxy-2-(1-methyl-1H-imidazol-2-yl)thieno[3,2-d]pyrimidine] | 76 to 100 | 76 to 100 | 76 to 100 | 76 to 100 | 76 to 100 | 76 to 100 | 0 (0% inhibition) | 76 to 100 | 76 to 100 | 76 to 100 | 76 to 100 | – | 76 to 100 | 76 to 100
12 | CO[C@H]1C[C@@H](Nc2nc(-c3nccn3C)nc3sc(-c4cn(C)cn4)c(-c4ccccc4)c23)C1 [Example 2, N-((1s,3s)-3-methoxycyclobutyl)-2-(1-methyl-1H-imidazol-2-yl)-6-(1-methyl-1H-imidazol-4-yl)-5-phenylthieno[2,3-d]pyrimidin-4-amine] | 76 to 100 | 76 to 100 | 51 to 75 | 51 to 75 | 76 to 100 | 76 to 100 | C (51-75% inhibition) | 51 to 75 | 51 to 75 | 76 to 100 | 51 to 75 | 5.30 to 6.00 | 76 to 100 | 76 to 100
